Measurements as given in patent US8999967B2, “Tricyclic fused ring inhibitors of hepatitis C” (Presidio Pharmaceuticals, Inc., priority 2010, dated 2015).
pEC50: −log10 of the molar value.

Tested on: HCV 1b_Huh-Luc/Neo-ET cell line (genotype 1b replicon in Huh 7 cells)
Assay: HCV replicon assay (luciferase readout)
Type: cell-based
Settings: Hepatitis C virus, HCV 1b replicon in Huh 7 cells, 72 h incubation, EC50 range class, read-out: Inhibition of HCV genotype 1b
Experimental: Biological activity of the compounds of the invention was determined using an HCV replicon assay. The HCV 1b_Huh-Luc/Neo-ET cell line persistently expressing a bicistronic genotype 1b replicon in Huh 7 cells was obtained from ReBLikon GMBH. This cell line was used to test compound inhibition using luciferase enzyme activity readout as a measurement of compound inhibition of replicon levels.
On Day 1 (the day after plating cells), each compound is added in triplicate to the cells. Plates are incubated for 72 h prior to determining luciferase levels. Enzyme activity was measured using a Bright-Glo Kit (cat. number E2620) manufactured by Promega Corporation. The following equation was used to generate a percent control value for each compound. % Control=(Compound Luciferase Level/Control Luciferase Level)*100
The EC50 value was determined using GraphPad Prism and the following equation: Y=Bottom asymptote+(Top asymptote-Bottom asymptote)/(1+10^((Log EC50−X)*HillSlope))
EC50 values of compounds are determined several times in the replicon assay to generate average EC50 values. […]

SMILES	pEC50
COC(=O)N[C@H](C(=O)N1CCC[C@H]1c1ncc(-c2cc3c(cc2F)Cc2cc(-c4cnc([C@@H]5CCCN5C(=O)[C@@H](NC(=O)OC)C5CCOCC5)[nH]4)ccc2O3)[nH]1)C(C)C [Compound 44]	> 9.00
COC(=O)N[C@@H](C(=O)N1CCC[C@H]1c1ncc(-c2ccc3c(c2)C(C)(C)c2ccc(-c4ccc5nc([C@@H]6CCCN6C(=O)[C@H](NC(=O)OC)c6ccccc6)[nH]c5c4)cc2O3)[nH]1)c1ccccc1 [Compound 134]	> 9.00
COC(=O)N[C@H](C(=O)N1CCC[C@H]1c1ncc(-c2ccc3c(c2)Cc2cc(F)c(-c4cnc([C@@H]5CCCN5C(=O)[C@@H](NC(=O)OC)[C@@H](C)OC)[nH]4)cc2O3)[nH]1)[C@@H](C)OC [Compound 40]	> 9.00
COC(=O)N[C@H](C(=O)N1CCC[C@H]1c1ncc(-c2ccc3c(c2)Cc2ccc(-c4cnc([C@@H]5CCCN5C(=O)[C@@H](NC(=O)OC)C(C)C)[nH]4)cc2O3)[nH]1)C(C)C [Example 6]	> 9.00
COC(=O)N[C@H](C(=O)N1CCC[C@H]1c1ncc(-c2ccc3c(c2)Oc2ccc(-c4cnc([C@@H]5CCCN5C(=O)[C@@H](NC(=O)OC)C(C)C)[nH]4)cc2C(=O)N3)[nH]1)C(C)C [Example 14]	6.00 to 8.00
CC[C@H](C)[C@H](NC(=O)OC)C(=O)N1CSC[C@H]1c1ncc(-c2ccc3c(c2)Oc2ccc(-c4cnc([C@@H]5CSCN5C(=O)[C@@H](NC(=O)OC)[C@@H](C)CC)[nH]4)cc2O3)[nH]1 [Compound 67]	> 9.00
C#CC[C@H](NC(=O)OC)C(=O)N1CCC[C@H]1c1ncc(-c2ccc3c(c2)C(C)(C)c2ccc(-c4ccc5nc([C@@H]6CCCN6C(=O)[C@H](CC#C)NC(=O)OC)[nH]c5c4)cc2O3)[nH]1 [Compound 150]	> 9.00
COC(=O)N[C@H](C(=O)N1CCC[C@H]1c1ncc(-c2ccc3c(=O)c4cc(-c5cnc([C@@H]6CSCN6C(=O)[C@@H](NC(=O)OC)C(C)C)[nH]5)ccc4oc3c2)[nH]1)C(C)C [Compound 122]	> 9.00
COC(=O)N[C@H](C(=O)N1CCC[C@H]1c1ncc(-c2ccc3c(c2)Cc2cc(F)c(-c4cnc([C@@H]5CCCN5C(=O)[C@@H](NC(=O)OC)[C@@H](C)OC)[nH]4)cc2O3)[nH]1)C1CCOCC1 [Compound 42]	> 9.00
COC(=O)N[C@@H](C(=O)N1CCC[C@H]1c1ncc(-c2ccc3nc4cc(-c5cnc([C@@H]6CCCN6C(=O)[C@H](NC(=O)OC)c6ccccc6)[nH]5)ccc4nc3c2)[nH]1)c1ccccc1 [Example 2]	> 9.00
C=CC[C@H](NC(=O)OC)C(=O)N1CCC[C@H]1c1ncc(-c2ccc3c(c2)Oc2ccc(-c4cnc([C@@H]5CCCN5C(=O)[C@H](CC=C)NC(=O)OC)[nH]4)cc2O3)[nH]1 [Compound 55]	> 9.00
COC(=O)N[C@H](C(=O)N1CCCC[C@H]1c1ncc(-c2ccc3oc4cc(-c5cnc([C@@H]6CCCN6C(=O)[C@@H](NC(=O)OC)C(C)C)[nH]5)ccc4c(=O)c3c2)[nH]1)C(C)C [Compound 141]	> 9.00
COC(=O)N[C@H](C(=O)N1CCCC[C@H]1c1ncc(-c2ccc3c(c2)Oc2ccc(-c4cnc([C@@H]5CCCCN5C(=O)[C@@H](NC(=O)OC)C(C)C)[nH]4)cc2O3)[nH]1)C(C)C [Compound 47]	> 9.00
COC(=O)N[C@H](C(=O)N1CCC[C@H]1c1ncc(-c2ccc3c(=O)c4cc(-c5cnc([C@@H]6CCCN6C(=O)[C@H](NC(=O)OC)c6ccccc6)[nH]5)ccc4oc3c2)[nH]1)C(C)C [Example 15]	> 9.00
COC(=O)N[C@H](C(=O)N1CCC[C@H]1c1ncc(-c2ccc3c(c2)Oc2ccc(-c4cnc([C@@H]5CCCN5C(=O)[C@@H](NC(=O)OC)C5CCCC5)[nH]4)cc2O3)[nH]1)C1CCCC1 [Compound 33]	> 9.00
COC(=O)N[C@@H](C(=O)N1CSC[C@H]1c1ncc(-c2ccc3c(=O)c4cc(-c5cnc([C@@H]6CSCN6C(=O)[C@H](NC(=O)OC)c6ccccc6)[nH]5)ccc4oc3c2)[nH]1)c1ccccc1 [Compound 129]	> 9.00
CC[C@H](C)[C@H](NC(=O)OC)C(=O)N1CCC[C@H]1c1ncc(-c2cc3c(cc2F)Cc2cc(-c4cnc([C@@H]5CCCN5C(=O)[C@H](COC)NC(=O)OC)[nH]4)ccc2O3)[nH]1 [Compound 60]	> 9.00
